In patent publication US9550782B2, “Compounds and methods for treating diabetes” (Medivation Technologies, Inc., priority 2011, dated 2017):

biological target: T1, rat adrenergic α1B receptor (Rattus norvegicus, UniProt P15823); experiment: Radioligand binding, adrenergic α1B ([3H]Prazosin); design: species or system Wistar Rat; settings: compound at 0.1 μM, repeat datapoints each shown, 0.1 µM
T1 construct: rat adrenergic α1B receptor obtained from Wistar Rat liver; from tissue; host or cells: Wistar rat liver
T1 sequence (P15823 1-515): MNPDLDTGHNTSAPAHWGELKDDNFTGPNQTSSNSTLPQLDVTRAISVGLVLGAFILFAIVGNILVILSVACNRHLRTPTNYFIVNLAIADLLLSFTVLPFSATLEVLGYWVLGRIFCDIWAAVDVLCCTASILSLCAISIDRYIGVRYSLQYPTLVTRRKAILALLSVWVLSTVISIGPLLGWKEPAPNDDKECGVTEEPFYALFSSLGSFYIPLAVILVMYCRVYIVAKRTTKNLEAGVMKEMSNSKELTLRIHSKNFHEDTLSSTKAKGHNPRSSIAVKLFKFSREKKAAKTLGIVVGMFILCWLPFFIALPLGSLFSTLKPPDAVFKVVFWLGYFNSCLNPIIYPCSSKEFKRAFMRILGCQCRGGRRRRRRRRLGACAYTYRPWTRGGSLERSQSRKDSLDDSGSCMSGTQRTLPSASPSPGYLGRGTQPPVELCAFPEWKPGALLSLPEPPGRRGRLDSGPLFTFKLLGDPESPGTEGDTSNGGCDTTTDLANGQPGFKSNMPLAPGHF
Method in brief: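 Rat α1B receptor from Wistar rat liver was incubated with 0.25 nM [3H]prazosin for 60 min at 25 °C in 50 mM Tris-HCl, pH 7.4, 0.5 mM EDTA. Non-specific binding was defined with 10 μM phentolamine. Bound radioligand was measured by filtration and counting, reported as percent inhibition of specific binding.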

Percentage inhibition of ligand binding, Adrenergic α1B (0.1 μM) [%] | Structure (SMILES)
50 | CN1CCc2c(n(CC(O)c3ccncc3)c3ccc(Cl)cc23)C1 (single isomer, unassigned) [41b]
23 | CN1CCc2c(c3cccc(Cl)c3n2CC(O)c2ccncc2)C1 (single isomer, unassigned) [45a]
24 | CN1CCc2c(c3cccc(Cl)c3n2CC(O)c2ccncc2)C1 (single isomer, unassigned) [45b]
58 | Cc1ccc2c(c1)c1c(n2CC(O)c2ccncc2)CCN2CCCCC12 (single isomer, unassigned) [47a]
70 | Cc1ccc2c(c1)c1c(n2CC(O)c2ccncc2)CCN2CCCCC12 (single isomer, unassigned) [47b]
6 | Cc1ccc2c(c1)c1c(n2CC(O)c2ccncc2)CCN2CCCCC12 (single isomer, unassigned) [47c]
5 | Cc1ccc2c(c1)c1c(n2CC(O)c2ccncc2)CCN2CCCCC12 (single isomer, unassigned) [47d]
16 | CN1CCc2c(c3cccc(Br)c3n2CC(O)c2ccncc2)C1 (single isomer, unassigned) [48a]
14 | CN1CCc2c(c3cccc(Br)c3n2CC(O)c2ccncc2)C1 (single isomer, unassigned) [48b]
1 | Cc1ccc2c(c1)c1c(n2CC(C)(O)c2ccc[n+]([O-])c2)CCN(C)C1 (single isomer, unassigned) [56a]
6 | Cc1ccc2c(c1)c1c(n2CC(C)(O)c2ccc[n+]([O-])c2)CCN(C)C1 (single isomer, unassigned) [56b]
11 | CN1CCc2c(c3cc(C(F)(F)F)ccc3n2CC(O)c2cccnc2)C1 (single isomer, unassigned) [59a]
7 | CN1CCc2c(c3cc(C(F)(F)F)ccc3n2CC(O)c2cccnc2)C1 (single isomer, unassigned) [59b]

biological target: T2, human recombinant adrenergic α2B receptor (Homo sapiens, UniProt P18089); experiment: Radioligand binding, adrenergic α2B ([3H]Rauwolscine); settings: compound at 0.03 μM, repeat datapoints each shown, 0.03 µM
T2 construct: expressed in transfected cells; host or cells: CHO-K1
T2 sequence (P18089 1-450): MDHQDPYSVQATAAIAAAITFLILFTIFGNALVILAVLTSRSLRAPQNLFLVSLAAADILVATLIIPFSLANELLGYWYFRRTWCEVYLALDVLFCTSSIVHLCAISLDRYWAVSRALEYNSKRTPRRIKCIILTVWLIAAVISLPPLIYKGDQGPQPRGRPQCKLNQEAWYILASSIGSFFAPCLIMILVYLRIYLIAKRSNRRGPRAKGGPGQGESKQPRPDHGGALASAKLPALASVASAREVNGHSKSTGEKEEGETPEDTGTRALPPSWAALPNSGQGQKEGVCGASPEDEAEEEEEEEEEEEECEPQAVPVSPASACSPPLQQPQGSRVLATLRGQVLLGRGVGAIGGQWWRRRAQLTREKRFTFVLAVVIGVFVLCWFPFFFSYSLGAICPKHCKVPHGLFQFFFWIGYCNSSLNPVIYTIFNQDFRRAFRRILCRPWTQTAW
Method in brief: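 Membranes from CHO-K1 cells expressing human recombinant α2B, in 50 mM Tris-HCl pH 7.4, 12.5 mM MgCl2, 1 mM EDTA, 0.2% BSA, incubated with compound and 2.5 nM [3H]Rauwolscine, 60 min, 25 °C.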

Percentage inhibition of ligand binding, Adrenergic α2B (0.03 μM) [%] | Structure (SMILES)
50 | CN1CCc2c(n(CC(O)c3ccncc3)c3ccc(Cl)cc23)C1 (single isomer, unassigned) [41b]
54 | CN1CCc2c(c3cccc(Cl)c3n2CC(O)c2ccncc2)C1 (single isomer, unassigned) [45a]
96 | CN1CCc2c(c3cccc(Cl)c3n2CC(O)c2ccncc2)C1 (single isomer, unassigned) [45b]
40 | Cc1ccc2c(c1)c1c(n2CC(O)c2ccncc2)CCN2CCCCC12 (single isomer, unassigned) [47a]
119 | Cc1ccc2c(c1)c1c(n2CC(O)c2ccncc2)CCN2CCCCC12 (single isomer, unassigned) [47b]
53 | Cc1ccc2c(c1)c1c(n2CC(O)c2ccncc2)CCN2CCCCC12 (single isomer, unassigned) [47c]
30 | Cc1ccc2c(c1)c1c(n2CC(O)c2ccncc2)CCN2CCCCC12 (single isomer, unassigned) [47d]
58 | CN1CCc2c(c3cccc(Br)c3n2CC(O)c2ccncc2)C1 (single isomer, unassigned) [48a]
86 | CN1CCc2c(c3cccc(Br)c3n2CC(O)c2ccncc2)C1 (single isomer, unassigned) [48b]
20 | Cc1ccc2c(c1)c1c(n2CC(C)(O)c2ccc[n+]([O-])c2)CCN(C)C1 (single isomer, unassigned) [56a]
28 | Cc1ccc2c(c1)c1c(n2CC(C)(O)c2ccc[n+]([O-])c2)CCN(C)C1 (single isomer, unassigned) [56b]
15 | CN1CCc2c(c3cc(C(F)(F)F)ccc3n2CC(O)c2cccnc2)C1 (single isomer, unassigned) [59a]
31 | CN1CCc2c(c3cc(C(F)(F)F)ccc3n2CC(O)c2cccnc2)C1 (single isomer, unassigned) [59b]

biological target: T3, human recombinant adrenergic α2A receptor (Homo sapiens, UniProt P08913); experiment: Radioligand binding, adrenergic α2A ([3H]MK-912); settings: compound at 0.1 μM; [3H]MK-912; repeat datapoints each shown; 0.1 µM
T3 construct: expressed in transfected cells; host or cells: insect Sf9 cells
T3 sequence (P08913 1-465): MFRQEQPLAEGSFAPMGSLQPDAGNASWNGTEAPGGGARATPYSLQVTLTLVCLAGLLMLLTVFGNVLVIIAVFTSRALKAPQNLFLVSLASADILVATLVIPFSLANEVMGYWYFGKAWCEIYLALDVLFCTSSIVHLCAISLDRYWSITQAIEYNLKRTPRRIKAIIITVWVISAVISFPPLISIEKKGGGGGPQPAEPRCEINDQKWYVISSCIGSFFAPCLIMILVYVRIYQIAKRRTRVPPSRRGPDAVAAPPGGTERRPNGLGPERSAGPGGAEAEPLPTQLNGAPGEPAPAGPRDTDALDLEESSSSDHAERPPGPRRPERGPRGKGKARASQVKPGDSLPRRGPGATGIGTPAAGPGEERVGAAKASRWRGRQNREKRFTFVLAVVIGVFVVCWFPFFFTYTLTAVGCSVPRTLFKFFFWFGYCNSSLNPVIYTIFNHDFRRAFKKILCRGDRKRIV
Method in brief: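 Sf9 membranes, 1 nM [3H]MK-912, 60 min, 25 °C, Tris-HCl pH 7.4/MgCl2/EDTA buffer. NSB: 10 μM WB-4101. Filtration, counting; % inhibition of specific binding.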

Percentage inhibition of ligand binding, Adrenergic α2A (0.1 μM) [%] | Structure (SMILES)
8 | CN1CCc2c(n(CC(O)c3ccncc3)c3ccc(Cl)cc23)C1 (single isomer, unassigned) [41b]
−4 | CN1CCc2c(c3cccc(Cl)c3n2CC(O)c2ccncc2)C1 (single isomer, unassigned) [45a]
16 | CN1CCc2c(c3cccc(Cl)c3n2CC(O)c2ccncc2)C1 (single isomer, unassigned) [45b]
10 | Cc1ccc2c(c1)c1c(n2CC(O)c2ccncc2)CCN2CCCCC12 (single isomer, unassigned) [47a]
41 | Cc1ccc2c(c1)c1c(n2CC(O)c2ccncc2)CCN2CCCCC12 (single isomer, unassigned) [47b]
4 | Cc1ccc2c(c1)c1c(n2CC(O)c2ccncc2)CCN2CCCCC12 (single isomer, unassigned) [47c]
−3 | Cc1ccc2c(c1)c1c(n2CC(O)c2ccncc2)CCN2CCCCC12 (single isomer, unassigned) [47d]
12 | CN1CCc2c(c3cccc(Br)c3n2CC(O)c2ccncc2)C1 (single isomer, unassigned) [48a]
17 | CN1CCc2c(c3cccc(Br)c3n2CC(O)c2ccncc2)C1 (single isomer, unassigned) [48b]
11 | Cc1ccc2c(c1)c1c(n2CC(C)(O)c2ccc[n+]([O-])c2)CCN(C)C1 (single isomer, unassigned) [56a]
17 | Cc1ccc2c(c1)c1c(n2CC(C)(O)c2ccc[n+]([O-])c2)CCN(C)C1 (single isomer, unassigned) [56b]
18 | CN1CCc2c(c3cc(C(F)(F)F)ccc3n2CC(O)c2cccnc2)C1 (single isomer, unassigned) [59a]
12 | CN1CCc2c(c3cc(C(F)(F)F)ccc3n2CC(O)c2cccnc2)C1 (single isomer, unassigned) [59b]
